# “Also recorded” adds a separate entry of the source. Read-outs that look alike come from different tables or passages of the source.
# Assay: Phase 1b MAD plasma pharmacokinetics, non-compartmental analysis
# Format: in vivo, human
# Source text: Methods: All study procedures were approved by the IRB, and informed consent was obtained. Three cohorts of volunteers 45-80 years of age with well-controlled comorbidities (NOAD) and one cohort of AD patients diagnosed with cognitive impairment consistent with prodromal AD per International Working Group criteria or mild AD per National Institute on Aging—Alzheimer's Association criteria (n=6 active, 2 placebo per cohort) were enrolled. Participants were admitted to the study site for the duration of the dosing and returned 7-12 days after the last dose for a safety visit. Participants received NTRX-07 (10, 30, or 90 mg) or a placebo in a double-blinded randomization orally once daily for seven days. Subjects were assessed for changes in vital signs, including maneuvers to induce lightheadedness, electrocardiograms, 24-hour electroencephalograms (EEG), and safety laboratory studies. The second cohort returned and received a single repeat dose after a standard high-fat meal. The AD cohort also underwent cognitive testing and had blood samples for biomarkers drawn. Subjects had PK sampling done after the first and final dose of the study drug. An independent safety review committee conducted a blinded safety review of adverse events and plasma levels between each cohort.
# All subjects had PK sampling done after the first and final dose of the study drug.
# (§1) Raw bioanalytical data were received from Nuvisan following analysis of plasma samples from each of four cohorts. PK parameters were calculated by noncompartmental analysis using standard equations. Specifically, area under the plasma concentration versus time curve (AUC) was calculated using the trapezoid rule. Maximal plasma concentration (Cmax) and time of maximal plasma concentration (Tmax) were taken directly from the data. Clearance divided by bioavailability (Cl/F) was calculated as the dose divided by the AUC. Apparent volume of distribution over bioavailability (Vd/F) was calculated as dose divided by Cmax.
# With oral administration of the dose every 24 hours for 7 days, blood samples were taken over a 24-hour interval on Days 1 and 7 and before and after dosing on Day 3.
# as §1, with “on Oct. 27, 2022. […]” for “following analysis of plasma samples from each of four cohorts. PK parameters were calculated by noncompartmental analysis using standard equations.”
# as §1, with “on Nov. 24, 2022. […]” for “following analysis of plasma samples from each of four cohorts. PK parameters were calculated by noncompartmental analysis using standard equations.”
# as §1, with “on Dec. 19, 2022. […]” for “following analysis of plasma samples from each of four cohorts. PK parameters were calculated by noncompartmental analysis using standard equations.”
# Raw bioanalytical data were received from Nuvisan on Jun. 30, 2023. […] Specifically, area under the plasma concentration versus time curve (AUC) was calculated using the trapezoid rule. Maximal plasma concentration (Cmax) and time of maximal plasma concentration (Tmax) were taken directly from the data. […]
smiles,measurement,setting,value
"CC1(Cc2ccccc2)COc2cc(C(=O)N3CCCCC3)ccc21 (stereo not drawn) [NTRX-07, 3-benzyl-3-methyl-2,3-dihydrobenzofuran-6-carboxylic acid-piperidine amide]",Cmax,"human, plasma, po, 90 mg, Cohort D AD patients, 90 mg QD oral, Day 7, mean ± SD, read-out: Average of Cmax",240 ± 38 ng/mL
same,Tmax,"human, plasma, po, 90 mg, Cohort D AD patients, 90 mg QD oral, Day 7, mean ± SD, read-out: Average of Tmax",1.1 ± 0.5 h
same,Vd/F,"human, plasma, po, 90 mg, Cohort D AD patients, 90 mg QD oral, Day 7, mean ± SD, read-out: Average of Vd/F",384 ± 69 L
same,AUC over 24 h (AUC0-24),"human, plasma, po, 90 mg, Table 14: Cohort C, 90 mg QD oral, Day 1, mean ± S.D.",1270 ± 509 ng·h/mL
same,Cmax,"human, plasma, po, 90 mg, Table 14: Cohort C, 90 mg QD oral, Day 1, mean ± S.D., read-out: Cmax",400 ± 202 ng/mL
same,Tmax,"human, plasma, po, 90 mg, Table 14: Cohort C, 90 mg QD oral, Day 1, mean ± S.D., read-out: Tmax",2.3 ± 2.2 h
same,Vd/F,"human, plasma, po, 90 mg, Table 14: Cohort C, 90 mg QD oral, Day 1, mean ± S.D., read-out: Vd/F",337 ± 316 L
same,AUC over 24 h (AUC0-24),"human, plasma, po, 90 mg, Table 15: Cohort C, 90 mg QD oral, Day 7, mean ± S.D.",741 ± 357 ng·h/mL
same,Cmax,"human, plasma, po, 90 mg, Table 15: Cohort C, 90 mg QD oral, Day 7, mean ± S.D., read-out: Cmax",189 ± 95 ng/mL
same,Tmax,"human, plasma, po, 90 mg, Table 15: Cohort C, 90 mg QD oral, Day 7, mean ± S.D., read-out: Tmax",1.3 ± 1 h
same,Vd/F,"human, plasma, po, 90 mg, Table 15: Cohort C, 90 mg QD oral, Day 7, mean ± S.D., read-out: Vd/F",568 ± 231 L
same,AUC(0-t),"human, plasma, po, 90 mg, Table 16: Cohort D (AD), 90 mg QD oral, Day 1, mean ± S.D., read-out: AUClast",1560 ± 605 ng·h/mL
same,Cmax,"human, plasma, po, 90 mg, Table 16: Cohort D (AD), 90 mg QD oral, Day 1, mean ± S.D., read-out: Cmax",478 ± 154 ng/mL
same,Tmax,"human, plasma, po, 90 mg, Table 16: Cohort D (AD), 90 mg QD oral, Day 1, mean ± S.D., read-out: Tmax",1.1 ± 0.6 h
same,Vd/F,"human, plasma, po, 90 mg, Table 16: Cohort D (AD), 90 mg QD oral, Day 1, mean ± S.D., read-out: Vd/F",211 ± 90 L
same,AUC over 24 h (AUC0-24),"human, plasma, po, 90 mg, Table 17: Cohort D (AD), 90 mg QD oral, Day 7, individual subjects",623 ng·h/mL
same,Cmax,"human, plasma, po, 90 mg, Table 17: Cohort D (AD), 90 mg QD oral, Day 7, individual subjects, read-out: Cmax",286 ng/mL
same,Vd/F,"human, plasma, po, 90 mg, Table 17: Cohort D (AD), 90 mg QD oral, Day 7, individual subjects, read-out: Vd/F",315 L
same,AUC over 24 h (AUC0-24),"human, plasma, po, 90 mg, Table 17: Cohort D (AD), 90 mg QD oral, Day 7, mean ± S.D.",806 ± 196 ng·h/mL
same,Cmax,"human, plasma, po, 90 mg, Table 17: Cohort D (AD), 90 mg QD oral, Day 7, mean ± S.D., read-out: Cmax",240 ± 38 ng/mL
same,Tmax,"human, plasma, po, 90 mg, Table 17: Cohort D (AD), 90 mg QD oral, Day 7, mean ± S.D., read-out: Tmax",1.1 ± 0.5 h
same,Vd/F,"human, plasma, po, 90 mg, Table 17: Cohort D (AD), 90 mg QD oral, Day 7, mean ± S.D., read-out: Vd/F",384 ± 69 L
same,AUC over 24 h (AUC0-24),"human, plasma, po, 120 mg, Table 24 (interim): Cohort B, 120 mg SDD (30 mg NTRX-07) QD oral, Day 1, mean ± S.D.",323 ± 213 ng·h/mL
same,Cmax,"human, plasma, po, 120 mg, Table 24 (interim): Cohort B, 120 mg SDD (30 mg NTRX-07) QD oral, Day 1, mean ± S.D., read-out: Cmax",109 ± 57.8 ng/mL
same,Tmax,"human, plasma, po, 120 mg, Table 24 (interim): Cohort B, 120 mg SDD (30 mg NTRX-07) QD oral, Day 1, mean ± S.D., read-out: Tmax",0.9 ± 0.6 h
same,Vd/F,"human, plasma, po, 120 mg, Table 24 (interim): Cohort B, 120 mg SDD (30 mg NTRX-07) QD oral, Day 1, mean ± S.D., read-out: Vd/F",1340 ± 750 L
same,Tmax,"human, plasma, po, 120 mg, Table 25 (interim): Cohort B, 120 mg SDD (30 mg NTRX-07) QD oral, Day 7, individual subjects, read-out: Tmax",0.5 h
same,AUC over 24 h (AUC0-24),"human, plasma, po, 120 mg, Table 25 (interim): Cohort B, 120 mg SDD (30 mg NTRX-07) QD oral, Day 7, mean ± S.D.",214 ± 191 ng·h/mL
same,Cmax,"human, plasma, po, 120 mg, Table 25 (interim): Cohort B, 120 mg SDD (30 mg NTRX-07) QD oral, Day 7, mean ± S.D., read-out: Cmax",120 ± 79.2 ng/mL
same,Tmax,"human, plasma, po, 120 mg, Table 25 (interim): Cohort B, 120 mg SDD (30 mg NTRX-07) QD oral, Day 7, mean ± S.D., read-out: Tmax",0.5 h
same,Vd/F,"human, plasma, po, 120 mg, Table 25 (interim): Cohort B, 120 mg SDD (30 mg NTRX-07) QD oral, Day 7, mean ± S.D., read-out: Vd/F",1240 ± 936 L
same,AUC over 24 h (AUC0-24),"human, plasma, po, 360 mg SDD, Table 29 (interim): Cohort C, 360 mg SDD (90 mg NTRX-07) QD oral, Day 1, mean ± S.D.",1290 ± 541 ng·h/mL
same,Cmax,"human, plasma, po, 360 mg SDD, Table 29 (interim): Cohort C, 360 mg SDD (90 mg NTRX-07) QD oral, Day 1, mean ± S.D., read-out: Cmax",439 ± 236 ng/mL
same,Tmax,"human, plasma, po, 360 mg SDD, Table 29 (interim): Cohort C, 360 mg SDD (90 mg NTRX-07) QD oral, Day 1, mean ± S.D., read-out: Tmax",2.3 ± 2.8 h
same,Vd/F,"human, plasma, po, 360 mg SDD, Table 29 (interim): Cohort C, 360 mg SDD (90 mg NTRX-07) QD oral, Day 1, mean ± S.D., read-out: Vd/F",1300 ± 1290 L
same,AUC over 24 h (AUC0-24),"human, plasma, po, 360 mg SDD, Table 30 (interim): Cohort C, 360 mg SDD (90 mg NTRX-07) QD oral, Day 7, mean ± S.D.",747 ± 349 ng·h/mL
same,Cmax,"human, plasma, po, 360 mg SDD, Table 30 (interim): Cohort C, 360 mg SDD (90 mg NTRX-07) QD oral, Day 7, mean ± S.D., read-out: Cmax",189 ± 95 ng/mL
same,Tmax,"human, plasma, po, 360 mg SDD, Table 30 (interim): Cohort C, 360 mg SDD (90 mg NTRX-07) QD oral, Day 7, mean ± S.D., read-out: Tmax",1.3 ± 1 h
same,Vd/F,"human, plasma, po, 360 mg SDD, Table 30 (interim): Cohort C, 360 mg SDD (90 mg NTRX-07) QD oral, Day 7, mean ± S.D., read-out: Vd/F",2270 ± 923 L
same,AUC over 24 h (AUC0-24),"human, plasma, po, 360 mg SDD, Table 34 (interim): Cohort D (AD), 360 mg SDD (90 mg NTRX-07) QD oral, Day 1, mean ± S.D.",1560 ± 329 ng·h/mL
same,Cmax,"human, plasma, po, 360 mg SDD, Table 34 (interim): Cohort D (AD), 360 mg SDD (90 mg NTRX-07) QD oral, Day 1, mean ± S.D., read-out: Cmax",478 ± 154 ng/mL
same,Tmax,"human, plasma, po, 360 mg SDD, Table 34 (interim): Cohort D (AD), 360 mg SDD (90 mg NTRX-07) QD oral, Day 1, mean ± S.D., read-out: Tmax",1.1 ± 0.6 h
same,Vd/F,"human, plasma, po, 360 mg SDD, Table 34 (interim): Cohort D (AD), 360 mg SDD (90 mg NTRX-07) QD oral, Day 1, mean ± S.D., read-out: Vd/F",845 ± 360 L
same,AUC over 24 h (AUC0-24),"human, plasma, po, 360 mg SDD, Table 35 (interim): Cohort D (AD), 360 mg SDD (90 mg NTRX-07) QD oral, Day 7, individual subjects",1010 ng·h/mL
same,Cmax,"human, plasma, po, 360 mg SDD, Table 35 (interim): Cohort D (AD), 360 mg SDD (90 mg NTRX-07) QD oral, Day 7, individual subjects, read-out: Cmax",286 ng/mL
same,Vd/F,"human, plasma, po, 360 mg SDD, Table 35 (interim): Cohort D (AD), 360 mg SDD (90 mg NTRX-07) QD oral, Day 7, individual subjects, read-out: Vd/F",1260 L
same,AUC over 24 h (AUC0-24),"human, plasma, po, 360 mg SDD, Table 35 (interim): Cohort D (AD), 360 mg SDD (90 mg NTRX-07) QD oral, Day 7, mean ± S.D.",1430 ± 329 ng·h/mL
same,Cmax,"human, plasma, po, 360 mg SDD, Table 35 (interim): Cohort D (AD), 360 mg SDD (90 mg NTRX-07) QD oral, Day 7, mean ± S.D., read-out: Cmax",240 ± 38 ng/mL
same,Tmax,"human, plasma, po, 360 mg SDD, Table 35 (interim): Cohort D (AD), 360 mg SDD (90 mg NTRX-07) QD oral, Day 7, mean ± S.D., read-out: Tmax",1.1 ± 0.5 h
same,Vd/F,"human, plasma, po, 360 mg SDD, Table 35 (interim): Cohort D (AD), 360 mg SDD (90 mg NTRX-07) QD oral, Day 7, mean ± S.D., read-out: Vd/F",1540 ± 278 L
same,Plasma levels / exposure Day 7 vs Day 1,"repeat QD dosing, 90 mg cohorts",A decrease of levels at Day 7 was observed; also recorded: exposure is decreasing rather than increasing over time
